Measured values taken from US11124500B2, “Disubstituted pyrazole compounds” (Eli Lilly and Company, priority 2019, dated 2021).

Legend:
human KHK-A = human KHK-A (Homo sapiens (Human), UniProt P50053); assay: KHK enzyme activity assay, human KHK-A (F1P production, RapidFire MS); type: biochemical; conditions: fructose 1.25 mM, ATP 150 μM; average ± SEM; read-out: hKHK-A IC50
Method: (§1) KHK Enzyme Activity Assay for Human KHK-C and Human KHK-A
(§2) The intrinsic potency for inhibition of KHK C or A activity may be measured using an enzymatic assay which measures the production of FIP. Compounds are prepared in DMSO and tested in a 10-point concentration curve, to create 3-fold serial dilutions of the compounds in a 96-well plate ranging from 20 μM to 1.02 nM. Enzyme is prepared in assay buffer [50 mM 4-(2-hydroxyethyl)piperazine-1-ethanesulfonic acid (HEPES), 10 mM potassium chloride, 100 mM magnesium chloride, 2 mM tris(2-carboxyethyl)phosphine (TCEP), 0.01% n-octyl glucoside] and incubated with compounds at RT for 15 min. The reaction is carried out in 100 μL volumes containing substrate concentrations of fructose (250 μM for KHK-C assay and 1.25 mM for KHK-A assay) and ATP (150 μM for both isoforms); which are further incubated at RT for 20 min. The reaction is then halted by the addition of stop buffer; consisting of 0.2% formic acid and 1 μg/ml ^13C6-fructose-6-phosphate (^13C6-F6P) internal standard. Plates are stored in −20° C. until RapidFire MS analysis.
(§3) RapidFire MS Analysis for Quantitation of F1P
(§4) An Agilent 300 RapidFire automated extraction system (Agilent, Santa Clara, Calif.) with three HPLC quaternary pumps is coupled to an Agilent 6495 triple quadrupole mass spectrometer (Agilent Technologies, Santa Clara, Calif.) equipped with an electrospray ionization (ESI) interface source. The RapidFire Mass Spec system is equipped with a reusable RapidFire C18 (type C) solid-phase extraction (SPE) cartridge (G9205 Å).
(§5) Solvent A, used for sample loading and washing, is 6 mM octylamine (Acros Organics 129495000) brought to pH 5.0 using acetic acid. Solvent B, used for sample elution, is 20% water in ACN containing 0.1% formic acid. Samples are sequentially analyzed by aspirating 10 μL onto the collection loop under vacuum directly from multiwell plates. The 10 μL of sample is loaded onto the C18 cartridge and washed using solvent A at a flow rate of 1.25 mL/min for 5000 ms. The retained analytes are then eluted to the mass spectrometer using solvent B at a flow rate of 1.25 mL/min for 5000 ms. The system is re-equilibrated using solvent at flow rate of 1.25 mL/min for 2000 ms.
(§6) The triple quadrupole mass spectrometer is equipped with an ESI source and analytes are monitored using selected reaction monitoring (SRM) in negative mode [M−H]−. F1P is monitored at m/z 259.02/96.9 and ^13C6-fructose-6-phosphate is monitored at m/z 264.99/97. The area ratio values for F1P is calculated using ^13C6-fructose-6-phospate as internal standard.

human KHK-C = human KHK-C (Homo sapiens (Human), UniProt P50053); assay: KHK enzyme activity assay, human KHK-C (F1P production, RapidFire MS); type: biochemical; conditions: fructose 250 μM, ATP 150 μM; average ± SEM; read-out: hKHK-C IC50
Chain of human KHK-C (P50053 whole entry): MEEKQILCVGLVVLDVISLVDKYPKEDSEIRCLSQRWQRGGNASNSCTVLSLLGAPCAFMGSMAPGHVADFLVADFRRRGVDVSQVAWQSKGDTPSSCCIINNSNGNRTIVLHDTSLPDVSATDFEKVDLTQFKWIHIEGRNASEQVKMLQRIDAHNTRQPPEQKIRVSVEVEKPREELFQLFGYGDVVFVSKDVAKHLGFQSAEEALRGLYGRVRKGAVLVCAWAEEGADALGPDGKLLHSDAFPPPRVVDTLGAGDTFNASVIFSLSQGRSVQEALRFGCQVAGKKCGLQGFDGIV
Method: as §1, §2, §3, §4, §5, §6

Chain of human KHK-A (P50053 other isoform, or with tags, fused parts or gaps): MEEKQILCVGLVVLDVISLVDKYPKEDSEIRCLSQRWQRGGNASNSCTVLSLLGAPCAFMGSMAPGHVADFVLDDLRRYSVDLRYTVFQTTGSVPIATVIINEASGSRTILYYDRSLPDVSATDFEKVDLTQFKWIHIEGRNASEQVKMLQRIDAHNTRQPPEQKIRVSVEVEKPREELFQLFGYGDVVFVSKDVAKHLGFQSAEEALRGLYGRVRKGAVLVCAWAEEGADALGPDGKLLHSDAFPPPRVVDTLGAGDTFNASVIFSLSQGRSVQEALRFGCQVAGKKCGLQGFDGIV

SMILES	IC50 (human KHK-A) [nM]	IC50 (human KHK-C) [nM]
C[C@H]1CCN1c1nc(-c2cnn(CC(O)CO)c2)cc(C(F)(F)F)c1C#N (single isomer, unassigned; isomer 1) [Example 24a]	9.99	6.06
C[C@H]1CCN1c1nc(-c2cnn(CC(O)CO)c2)cc(C(F)(F)F)c1C#N (single isomer, unassigned; isomer 2) [Example 24b]	6.75	4.89
OC[C@H]1CCN1c1nc(-c2cnn(C3CNC3)c2)cc(C(F)(F)F)n1 [Example 3, [(2R)-1-[4-[1-(Azetidin-3-yl)pyrazol-4-yl]-6-(trifluoromethyl)pyrimidin-2-yl]azetidin-2-yl]methanol]	45.4 ± 29.5	41.9 ± 6.77
C[C@H]1[C@H](O)CN1c1nc(-c2cnn(C3CNC3)c2)cc(C(F)(F)F)n1 [Example 4, (2S,3R)-1-[4-[1-(Azetidin-3-yl)pyrazol-4-yl]-6-(trifluoromethyl)pyrimidin-2-yl]-2-methyl-azetidin-3-ol]	11.4 ± 4.34	14.4 ± 1.12
C[C@H]1CCN1c1nc(-c2cnn(CC(=O)NCCO)c2)cc(C(F)(F)F)c1C#N [Example 5, 2-[4-[5-Cyano-6-[(2S)-2-methylazetidin-1-yl]-4-(trifluoromethyl)-2-pyridyl]pyrazol-1-yl]-N-(2-hydroxyethyl)acetamide]	37.7 ± 19.9	57 ± 32.6
N#Cc1c(C(F)(F)F)cc(-c2cnn(C3CCNCC3)c2)nc1N1CC[C@@H]1CO [Example 6, 2-[(2R)-2-(Hydroxymethyl)azetidin-1-yl]-6-[1-(4-piperidyl)pyrazol-4-yl]-4-(trifluoromethyl)pyridine-3-carbonitrile]	15.4 ± 5.05	25.7 ± 5.14
C[C@H]1[C@H](O)CN1c1nc(-c2cnn(C3CCNCC3)c2)cc(C(F)(F)F)c1C#N [Example 7, 2-[(2S,3R)-3-Hydroxy-2-methyl-azetidin-1-yl]-6-[1-(4-piperidyl)pyrazol-4-yl]-4-(trifluoromethyl)pyridine-3-carbonitrile]	6.02 ± 2.27	18.1 ± 4.85
C[C@H]1CCN1c1nc(-c2cnn(C3CCN(C)CC3)c2)cc(C(F)(F)F)c1C#N [Example 8, 2-[(2S)-2-Methylazetidin-1-yl]-6-[1-(1-methyl-4-piperidyl)pyrazol-4-yl]-4-(trifluoromethyl)pyridine-3-carbonitrile]	25.2 ± 15.7	56.1 ± 62.5
C[C@H]1CCN1c1nc(-c2cnn(C3CCN(CCO)CC3)c2)cc(C(F)(F)F)c1C#N [Example 9, 6-[1-[1-(2-Hydroxyethyl)-4-piperidyl]pyrazol-4-yl]-2-[(2S)-2-methylazetidin-1-yl]-4-(trifluoromethyl)pyridine-3-carbonitrile]	3.58	6.26
C[C@H]1CCN1c1nc(-c2cnn(CCN(C)C)c2)cc(C(F)(F)F)c1C#N [Example 10, 6-[1-[2-(Dimethylamino)ethyl]pyrazol-4-yl]-2-[(2S)-2-methylazetidin-1-yl]-4-(trifluoromethyl)pyridine-3-carbonitrile]	246 ± 248	418 ± 503
C[C@H]1CCN1c1nc(-c2cnn(CCO)c2)cc(C(F)(F)F)c1C#N [Example 11, 6-[1-(2-Hydroxyethyl)pyrazol-4-yl]-2-[(2S)-2-methylazetidin-1-yl]-4-(trifluoromethyl)pyridine-3-carbonitrile]	5.23	8.03
C[C@H]1CCN1c1nc(-c2cnn(C3CCNCC3)c2)cc(C(F)(F)F)c1C#N [Example 12, 2-[(2S)-2-Methylazetidin-1-yl]-6-[1-(4-piperidyl)pyrazol-4-yl]-4-(trifluoromethyl)pyridine-3-carbonitrile]	3.65 ± 0.817	3.87 ± 0.391
C[C@H]1CCN1c1nc(-c2cnn(C3CCNCC3)c2)cc(C(F)(F)F)n1 [Example 13, 2-[(2S)-2-Methylazetidin-1-yl]-4-[1-(4-piperidyl)pyrazol-4-yl]-6-(trifluoromethyl)pyrimidine]	7.69 ± 7.97	15.5 ± 20.4
C[C@H]1[C@H](O)CN1c1nc(-c2cnn([C@@H]3CCNC3)c2)cc(C(F)(F)F)n1 [Example 14, (2S,3R)-2-Methyl-1-[4-[1-[(3R)-pyrrolidin-3-yl]pyrazol-4-yl]-6-(trifluoromethyl)pyrimidin-2-yl]azetidin-3-ol]	19.1 ± 2.98	15.9 ± 4.37
C[C@H]1[C@H](O)CN1c1nc(-c2cnn([C@H]3CCNC3)c2)cc(C(F)(F)F)n1 [Example 15, (2S,3R)-2-Methyl-1-[4-[1-[(3S)-pyrrolidin-3-yl]pyrazol-4-yl]-6-(trifluoromethyl)pyrimidin-2-yl]azetidin-3-ol]	26.7 ± 3.66	27.2 ± 8.6
OC[C@H]1CCN1c1nc(-c2cnn([C@@H]3CCNC3)c2)cc(C(F)(F)F)n1 [Example 16, [(2R)-1-[4-[1-[(3R)-Pyrrolidin-3-yl]pyrazol-4-yl]-6-(trifluoromethyl)pyrimidin-2-yl]azetidin-2-yl]methanol]	30 ± 5.09	28 ± 17.3
C[C@H]1CCN1c1nc(-c2cnn(C3CNC3)c2)cc(C(F)(F)F)c1C#N [Example 17, 6-[1-(Azetidin-3-yl)pyrazol-4-yl]-2-[(2S)-2-methylazetidin-1-yl]-4-(trifluoromethyl)pyridine-3-carbonitrile]	13.2 ± 12.7	16.1 ± 7.96
C[C@H]1CCN1c1nc(-c2cnn(C3CCN(C(=O)CN)CC3)c2)cc(C(F)(F)F)c1C#N [Example 18, 6-[1-[1-(2-Aminoacetyl)-4-piperidyl]pyrazol-4-yl]-2-[(2S)-2-methylazetidin-1-yl]-4-(trifluoromethyl)pyridine-3-carbonitrile]	35.6 ± 32.4	59.2 ± 67.8
CC(=O)N1CCC(n2cc(-c3cc(C(F)(F)F)c(C#N)c(N4CC[C@@H]4C)n3)cn2)CC1 [Example 19, 6-[1-(1-Acetyl-4-piperidyl)pyrazol-4-yl]-2-[(2S)-2-methylazetidin-1-yl]-4-(trifluoromethyl)pyridine-3-carbonitrile]	29.2	54.3
C[C@H]1CCN1c1nc(-c2cnn(CC(=O)N3CCN(C)CC3)c2)cc(C(F)(F)F)c1C#N [Example 20, 2-[(2S)-2-Methylazetidin-1-yl]-6-[1-[2-(4-methylpiperazin-1-yl)-2-oxo-ethyl]pyrazol-4-yl]-4-(trifluoromethyl)pyridine-3-carbonitrile]	81.8 ± 92.6	150 ± 243
C[C@H]1CCN1c1nc(-c2cnn(CC(=O)N(CCO)CCO)c2)cc(C(F)(F)F)c1C#N [Example 21, 2-[4-[5-Cyano-6-[(2S)-2-methylazetidin-1-yl]-4-(trifluoromethyl)-2-pyridyl]pyrazol-1-yl]-N,N-bis(2-hydroxyethyl)acetamide]	39.2 ± 13.6	55.2 ± 28.1
C[C@H]1CCN1c1nc(-c2cnn(CC(=O)N3C[C@@H](O)[C@H](O)C3)c2)cc(C(F)(F)F)c1C#N [Example 22, 6-[1-[2-[(3R,4R)-3,4-Dihydroxypyrrolidin-1-yl]-2-oxo-ethyl]pyrazol-4-yl]-2-[(2S)-2-methylazetidin-1-yl]-4-(trifluoromethyl)pyridine-3-carbonitrile]	33.7 ± 17.8	61.3 ± 57.5
C[C@H]1CCN1c1nc(-c2cnn(CC(=O)N3C[C@H](O)[C@@H](O)C3)c2)cc(C(F)(F)F)c1C#N [Example 23, 6-[1-[2-[(3S,4S)-3,4-Dihydroxypyrrolidin-1-yl]-2-oxo-ethyl]pyrazol-4-yl]-2-[(2S)-2-methylazetidin-1-yl]-4-(trifluoromethyl)pyridine-3-carbonitrile]	24.9 ± 15.3	41.6 ± 47.1
